Data: paper PMC9354638, “Targeting p21-activated kinase 4 (PAK4) with pyrazolo[3,4-d]pyrimidine derivative SPA7012 attenuates hepatic ischaemia-reperfusion injury in mice” (Journal of Enzyme Inhibition and Medicinal Chemistry, 2022)

Legend:
primary hepatocytes [1] = test: Hypoxia-reoxygenation (H/R) injury in primary hepatocytes; format: cell-based, mouse
Description: (§1) Primary hepatocytes were prepared from 8 to 10 week old C57BL/6 male mice by perfusion. […] Hepatocytes were resuspended in DMEM/F12 supplemented with 10% FBS, 10 units/mL penicillin, 10 μg/mL streptomycin, and 10 nM dexamethasone mixed with 42% Percoll, and then centrifuged for 5 min at 1,300 rpm. The cells were plated at 1 × 10^6 cells/well in 6-well culture dishes.
Primary hepatocytes were incubated at 37 °C in anaerobic jars (Oxoid, Basingstoke, Hampshire, UK) with oxygen-absorbing packs (AnaeroGen, Oxoid). […] Following various periods of hypoxia, reoxygenation of cells was initiated by opening the chamber and replacing the hypoxic medium with an oxygenated medium.
H/R-induced apoptosis was monitored using the Annexin V-propidium iodide (PI) double-staining kit (BD Biosciences, San Jose, CA, USA) according to the instructions of the manufacturer, allowing quantification by flow cytometry (BD Biosciences). The proportion of apoptotic cells was defined as the percentage of Annexin V-positive cells […].
Intracellular ROS levels were measured using 2′,7′-dichlorofluorescein diacetate (DCF-DA), which converts to fluorescent […] in cells when exposed to ROS. Briefly, after H/R injury, hepatocytes were loaded with 20 μM DCF-DA (Invitrogen) for 10 min at 37 °C. The DCF fluorescence intensity was measured by fluorescence spectrophotometry with 485 nm excitation and 538 nm emission and expressed as a percentage relative to control.
Alanine aminotransferase (ALT) and aspartate aminotransferase (AST) in serum (Asan Pharm, Seoul, Korea), glutathione (GSH, Arbour Assays, Ann Arbour, MI, USA), malondialdehyde (MDA, ab118970, Abcam, Cambridge, UK) in liver tissues, and lactate dehydrogenase (LDH, Biovision, Milpitas, CA, USA) in culture medium were analysed using specific kits. Serum levels of IL-1β, IL-6, TNF-α, and CCL-2 were detected using ELISA kits (all from Invitrogen).
Total RNA was extracted from frozen liver tissues or primary hepatocytes using TRIzol reagent (Invitrogen). RNA was treated with isopropanol, dried using 70% ethanol, and dissolved in diethyl pyrocarbonate-treated distilled water. First-strand cDNA was generated using the random hexamer primer provided in the first-strand cDNA synthesis kit (Applied Biosystems, Foster City, CA, USA). Specific primers were designed using PrimerBank (https://pga.mgh.harvard.edu/primerbank, Table 1). qPCR reactions were performed in a final volume of 10μ L containing 10 ng reverse-transcribed total RNA, 200 nM forward and reverse primers, and PCR master mixture. qPCR was performed in 384-well plates using an ABI Prism™ 7900HT Sequence Detection System (Applied Biosystems).
Nuclear and cytoplasmic fractions were prepared using the NE-PER Nuclear and Cytoplasmic Extraction kit (Thermo Fisher Scientific, Waltham, MA, USA). Tissue homogenates or cell lysates (15 μg) were separated by 6–14% SDS-PAGE and transferred to PVDF membranes. After blocking with 5% skim milk, blots were probed with primary antibodies against: PAK4 (G222), p-PAK4 (S474), p-IKKβ (S176/180), p-IκBα (S32), p-p65 (S536), cleaved caspase-3 (Asp175), Bax (Cell Signalling Technology, Beverly, MA, USA), GAPDH (A531), lamin B1(L75), Bcl2(P65), NQO1 (F252) (Bioworld Technology, St Louis Park, MN, USA), NF-κB p65 (C-20), IKBα (H-4), IKKβ (10A9B6) (Santa Cruz Biotechnology, Dallas, TX, USA), Nrf2 (Proteintech, Rosemont, IL, USA), HO-1 (Enzo Life Sciences, Farmingdale, New York, USA), and p-Thr (Merck KGaA, Darmstadt, Germany). For co-immunoprecipitations, 600 μg protein was incubated with anti-Nrf2 antibodies (Proteintech, Sankt Leon-Rot, Germany) overnight at 4 °C followed by protein G agarose for 2 h at 4 °C. Blots were probed with antibodies against PAK4, Nrf2, or p-Thr. Immunoreactive bands were detected with a Las-4000 imager (GE Healthcare Life Science, Pittsburgh, PA, USA).

[2] = system: PAK4-mediated phosphorylation of Nrf2; test: Co-IP analysis of PAK4-mediated Nrf2 phosphorylation in HEK293T cells; format: cell-based, human; conditions: HEK293T cells overexpressing Nrf2 and PAK4, 24 h transfection
Description: The human embryonic kidney cell line HEK293T was obtained from the American Type Culture Collection (Manassas, VA, USA). For the Nrf2 reporter gene assay, 1 μg of a plasmid containing a promoter with an ARE driving luciferase expression was used. Exogenous proteins were expressed by transfecting HEK293T cells with 1 μg of Nrf2 and PAK4 with Lipofectamine 3000 (Invitrogen, Carlsbad, CA, USA). Luciferase activity was measured using a Dual-Luciferase Reporter Assay (Promega, Madison, WI, USA) by Lumat LB 9507 (Berthold, Bad Wildbad, Germany).
Nuclear and cytoplasmic fractions were prepared using the NE-PER Nuclear and Cytoplasmic Extraction kit (Thermo Fisher Scientific, Waltham, MA, USA). Tissue homogenates or cell lysates (15 μg) were separated by 6–14% SDS-PAGE and transferred to PVDF membranes. […] Immunoreactive bands were detected with a Las-4000 imager (GE Healthcare Life Science, Pittsburgh, PA, USA).

primary hepatocytes [3] = test: MTT assay for cell viability; format: cell-based, mouse; conditions: SPA7012 at a concentration of less than 1 μM
Description: as §1
Cell viability was determined by analysing the reduction of 3–(4, 5-dimethylthiazol-2-yl)-2, 5-diphenyltetrazolium bromide (MTT) to formazan.

SMILES: Cc1nn(-c2cccc(C#CC3(O)CCCCC3)c2)c2ncnc(N)c12 [Compound 14b, 3-(4-Amino-3-methylpyrazolo[3,4-d]pyrimidin-1-yl)phenylethynylcyclohexan-1-ol]
- H/R-induced oxidative stress (DCF fluorescence, MDA, GSH) (primary hepatocytes [1]; 1 μM): decrease
- Cell damage (LDH release) after H/R (primary hepatocytes [1]; 1 μM before reoxygenation, 12 h reoxygenation, vs only H/R): markedly decreased
- H/R-induced apoptotic cell death (primary hepatocytes [1]; 1 μM, Annexin-V staining and Western blotting): decrease
- Phosphorylation levels of IKKβ and p65 in primary hepatocytes (primary hepatocytes [1]; 1 μM, H/R, vs control group): decreased
- Protein levels of IκBα in primary hepatocytes (primary hepatocytes [1]; 1 μM, H/R, vs control group): increased
- H/R-induced cytokine release (primary hepatocytes [1]; 1 μM, culture media protein and hepatocyte mRNA): decrease
- PAK4-mediated phosphorylation of Nrf2 at threonine residue [2]: effectively inhibited
- Effect on cell viability (MTT) (primary hepatocytes [3]): little effect
